These are literature values, as cited in patent US7192954B2, “Monocyclic anilide spirohydantoin CGRP receptor antagonists” (Merck & Co., Inc., priority 2003, dated 2007).

One series concerns marmoset. The note with it: electrical stimulation of the trigeminal ganglion.
Another series concerns rat. The note with it: trigeminal ganglion stimulation.
The test system of the next series is rats. The note with it: electrical stimulation of the dura mater, prior administration.

Ends that are not written are not given here.

As for `NCCCC[C@H](NC(=O)[C@@H](Cc1cc(Br)c(O)c(Br)c1)NC(=O)N1CCC(N2Cc3ccccc3NC2=O)CC1)C(=O)N1CCN(c2ccncc2)CC1` [BIBN4096BS], in the series on marmoset, the “increase in facial blood flow” value is listed as “blocked”.

For “CGRP(8–37): a peptide CGRP antagonist (VTHRLAGLLSRSGGVVKNNFVPTNVGSKAF; ends and bridges not checked; UniProt P06881 90-119, looked up, fragment)”, the “increase of facial blood flow” value with rat is “inhibited”. In addition, the “increase of the diameter of the middle meningeal artery” value in the series with rats is “blocked”.
